Laboratory results published in US20250361241A1, “HPK1 INHIBITOR AND MEDICAL USE THEREOF” (Betta Pharmaceuticals Co., Ltd., priority 2022, published 2025).

Experiments:
[1] = PK study of compound in monkeys; assay type: in vivo; settings: crab-eating monkey; for IV Plasma Cl_obs: IV 1 mg/kg
Method: Pharmacological Experiment 7: PK Study of Compound in Monkeys
The drug concentration was analyzed by LC-MS/MS method, and the pharmacokinetic parameters were calculated using Phoenix WinNolin software (Pharsight, USA).

[2] = PK study of compound in dogs; assay type: in vivo; settings: Beagle dog
Method: Pharmacological Experiment 6: PK Study of Compound in Dogs The compound was mixed with a solvent of saline or 10% DMSO/5% Solutol/85% saline or 10% DMSO/10% Solutol/80% saline (specific solvents are shown in the table below), vortexed and sonicated to prepare a clear oral solution. […] The drug concentration was analyzed by LC-MS/MS method, and the pharmacokinetic parameters were calculated using Phoenix WinNolin software (Pharsight, USA).

Jurkat cells = assay: Jurkat IL-2 secretion detection (anti-CD3/CD28 beads, ELISA); assay type: cell-based, human; settings: for Maximum induction factor: IL-2 secretion, Jurkat cells; for EC3x: concentration for IL-2 secretion of Jurkat cells to reach 3 times the baseline, 20 h
Method: Pharmacological Experiment 5: Jurkat IL-2 Secretion Detection
• (1) Take the cultured Jurkat cells, adjust the density to 1×10^6 cells/mL, and inoculate them in a flat-bottom […] plate (Jet Biofil, TCP011096), with 100 μL per well, • (2) Add 50 μL of the test compound to each well and incubate at 37° C. for 30 min; • (3) Take human anti-CD3/CD28 magnetic beads (Miltenyi, 130-091-441), wash once with RPMI-1640 complete medium, and adjust the density to 4×106 beads/mL for later use; • (4) After the compound incubation, 50 μL of anti-human CD3/CD28 magnetic beads were added to each well and cultured at 37° C. for 20 h, • (5) The cell culture supernatant was obtained and the IL-2 secretion was detected using the Human IL-2 DuoSet ELISA kit (R&D, DY008); • (6) The log value of the concentration was used as the X-axis and the IL-2 secretion was used as the Y-axis. The “log (agonist) vs. response-variable slope” equation of the analysis software GraphPad Prism 7 was used to fit the dose-effect curve, thereby obtaining the […] and the […]

[3] = tested on: mouse colon cancer cell CT26; assay: Efficacy in CT26 CDX model mice (subcutaneous homologous transplant tumor); assay type: in vivo, Balb/c mouse; settings: after 21 days
Method: Pharmacological Experiment 8; Study on the Efficacy of the Compound in CT26CDX Model Mice […] The first group (G1) was a vehicle control group (10% propylene glycol/5% HS15/85% glucose). The second group (G2) was the control compound D1-administered group. […] Note: PO stands for oral gavage, QD stands for once daily dosing, and BID stands for twice daily dosing. Tumor size and mouse body weight were measured twice a week during the experiment, and the weight of the animals on that day was used as a reference for each drug administration. The tumor size was measured by using a vernier caliper to measure the length (a) and width (b) of the tumor. The tumor volume (TV) was calculated using the following formula: TV=a*b2/2 After 21 days of administration, the tumor growth inhibition rate (TGI) of each administration group is shown in Table 10.

[4] = tested on: human peripheral blood mononuclear cells; assay: Detection of IFN-γ secretion in human peripheral blood mononuclear cells (anti-CD3/CD28 beads, ELISA); assay type: cell-based; settings: for Maximum induction factor: IFN-γ secretion, human PBMC; for EC3x: concentration for IFN-γ secretion of human PBMC to reach 3 times the baseline, 3 days
Method: Pharmacological Experiment 4: Detection of IFN-γ Secretion in Human Peripheral Blood Monocytes
• (1) Take human peripheral blood mononuclear cells frozen in liquid nitrogen, thaw in a 37° C. water bath, add 5 mL of preheated RPMI-1640 complete medium (containing 10% fetal bovine serum and penicillin/streptomycin), centrifuge at 500 g for 10 minutes, and discard the supernatant; • (2) Resuspend the cells in RPMI-1640 complete medium, adjust the density to 5×10^6 cells/mL, inoculate in a low-adhesion 6-well plate (Corning, 3471), and culture at 37° C. for 2 days; • (3) Collect cultured human peripheral blood mononuclear cells, centrifuge at 500 g for 10 min, and discard the supernatant; • (4) Resuspend the cells in RPMI-1640 complete medium, adjust the density to 1×10^6 cells/mL, and inoculate them in a round-bottom 96-well plate (Jet Biofil, TCP-002-096), with 100 μL per well; • (5) Add 50 μL of the test compound to each well and incubate at 37° C. for 30 min; • (6) Take human anti-CD3/CD28 magnetic beads (Miltenyi, 130-091-441), wash once with RPMI-1640 complete medium, and adjust the density to 0.5×106 beads/mL for later use; • (7) After the compound incubation, 50 μL of anti-human CD3/CD28 magnetic beads were added to each well and cultured at 37° C. for 3 days, • (8) The cell culture supernatant was obtained and the IFN-γ secretion was detected using the Human IFN-gamma DuoSet ELISA kit (R&D, DY285B-05); • (9) The log value of concentration was used as the X-axis and the IFN-γ secretion amount was used as the Y-axis. The “log (agonist) vs. response−variable slope” equation of the analysis software GraphPad Prism 7 was used to fit the dose-effect curve, thereby obtaining the EC3x value and the maximum induction factor of the compound for the secretion of IFN-γ from human peripheral blood mononuclear cells to reach 3 times the baseline.

HPK1 [5] = target: T1, HPK1 (Homo sapiens (Human), UniProt Q92918); assay: HPK1 enzyme activity detection (1 mM ATP system), ADP-Glo with MBP substrate, Pharmacological Experiment 2; assay type: biochemical
Outline: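 Compound in DMSO preincubated with HPK1 for 15 min at 25 °C, then reaction started with ATP (1 mM system) and MBP substrate for 60 min at 25 °C. ADP formed quantified by ADP-Glo luminescence; IC50 derived from percentage inhibition.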

HPK1 [6] = target: T1, HPK1; assay: HPK1 enzyme activity detection (1 mM ATP system), ADP-Glo, Pharmacological Experiment 1; assay type: biochemical
Method: Pharmacological Experiment 1: HPK1 Enzyme Activity Detection (1 mM ATP System)
• (1) Take ADP-GloTMKinase Assay Kit (Promega, Cat. No. V9102) to prepare 4× kinase buffer. • (2) Compound gradient dilution: The compound to be tested is diluted 3-fold, and 11 gradient concentrations are set, and each concentration is set for duplicate well detection. Serial dilutions were made in a 384-well plate to the corresponding 100×final concentration solution, and then 0.1 μL was transferred to the 384-well reaction plate for testing using Echo. Transfer 0.1 μL of 100% DMSO to the smallest and largest wells. • (3) Prepare HPK1 enzyme working solution using 4× kinase buffer. • (4) Add 5 μL of HPK1 enzyme working solution to each well and 5 μL of 1× kinase buffer to the smallest well. Centrifuge at 1000 rpm for 1 min and incubate at 25° C. for 15 min. • (5) During the incubation period, prepare the substrate working solution using 4× kinase buffer. • (6) Add 5 μL of substrate working solution containing 1 mM ATP to each well of the reaction plate, centrifuge at 1000 rpm for 1 min, and incubate at 25° C. for 60 min. • (7) At the end of incubation, add 5 μL of ADP Glo reagent to each well. Centrifuge at 1000 rpm for 1 min and incubate at 25° C. for 60 min. • (8) Add 10 μL of detection solution to each well, centrifuge at 1000 rpm for 1 min, and incubate at 25° C. for 60 min. • (9) Read using EnVision.
Inhibition rate calculation formula:
[formula] • Vehicle: Reading value of DMSO control well • Blank: No enzyme well reading • Largest well: Reading value of DMSO control well • Minimum well: No enzyme well reading
The log value of the concentration was used as the X-axis and the percentage inhibition rate was used as the Y-axis. The “log (inhibitor) vs. response—variable slope” of the analysis software GraphPad Prism 5 was used to fit the dose-effect curve to obtain the IC 50 value of the compound's inhibition of kinase binding.
See Table 1 for the enzymatic IC 50 data of the example compounds on HPK1.

GLK = GLK (Homo sapiens (Human), UniProt Q8IVH8); assay: GLK kinase assay (1 mM ATP system), ADP-Glo; assay type: biochemical
Outline: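 GLK kinase reaction with 1 mM ATP and MBP substrate ran 60 min at 25 °C after 15 min preincubation of enzyme with compound. ADP formed was detected by ADP-Glo luminescence; percent inhibition used to derive IC50.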

[7] = column beside IV plasma Cl_obs (IV 1 mg/kg)
[8] = PO 5 mg/kg, DMSO/Solutol/saline

T1 sequence (Q92918 whole entry, species assumed): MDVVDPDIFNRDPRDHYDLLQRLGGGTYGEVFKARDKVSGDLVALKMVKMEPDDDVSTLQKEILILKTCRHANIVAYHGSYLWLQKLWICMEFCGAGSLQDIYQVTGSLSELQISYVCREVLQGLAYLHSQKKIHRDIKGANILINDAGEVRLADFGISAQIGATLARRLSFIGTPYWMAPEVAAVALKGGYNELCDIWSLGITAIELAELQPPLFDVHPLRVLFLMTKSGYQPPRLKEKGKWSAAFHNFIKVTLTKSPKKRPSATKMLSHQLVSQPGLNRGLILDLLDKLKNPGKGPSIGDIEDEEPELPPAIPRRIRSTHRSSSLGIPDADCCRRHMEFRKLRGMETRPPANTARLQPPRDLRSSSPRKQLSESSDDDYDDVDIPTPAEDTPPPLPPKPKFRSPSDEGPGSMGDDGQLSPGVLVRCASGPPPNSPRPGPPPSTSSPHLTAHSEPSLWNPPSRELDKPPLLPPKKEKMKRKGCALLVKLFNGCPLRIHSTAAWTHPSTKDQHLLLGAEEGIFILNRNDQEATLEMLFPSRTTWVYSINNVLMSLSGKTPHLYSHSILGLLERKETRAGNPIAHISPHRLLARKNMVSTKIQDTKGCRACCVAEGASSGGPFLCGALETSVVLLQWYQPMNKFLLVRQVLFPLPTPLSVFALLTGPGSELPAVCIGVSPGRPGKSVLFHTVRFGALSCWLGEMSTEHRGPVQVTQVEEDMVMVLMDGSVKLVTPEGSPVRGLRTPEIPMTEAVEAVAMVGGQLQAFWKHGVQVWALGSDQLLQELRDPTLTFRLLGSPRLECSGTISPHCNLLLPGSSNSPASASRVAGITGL
Sequence of GLK (Q8IVH8 whole entry, species assumed): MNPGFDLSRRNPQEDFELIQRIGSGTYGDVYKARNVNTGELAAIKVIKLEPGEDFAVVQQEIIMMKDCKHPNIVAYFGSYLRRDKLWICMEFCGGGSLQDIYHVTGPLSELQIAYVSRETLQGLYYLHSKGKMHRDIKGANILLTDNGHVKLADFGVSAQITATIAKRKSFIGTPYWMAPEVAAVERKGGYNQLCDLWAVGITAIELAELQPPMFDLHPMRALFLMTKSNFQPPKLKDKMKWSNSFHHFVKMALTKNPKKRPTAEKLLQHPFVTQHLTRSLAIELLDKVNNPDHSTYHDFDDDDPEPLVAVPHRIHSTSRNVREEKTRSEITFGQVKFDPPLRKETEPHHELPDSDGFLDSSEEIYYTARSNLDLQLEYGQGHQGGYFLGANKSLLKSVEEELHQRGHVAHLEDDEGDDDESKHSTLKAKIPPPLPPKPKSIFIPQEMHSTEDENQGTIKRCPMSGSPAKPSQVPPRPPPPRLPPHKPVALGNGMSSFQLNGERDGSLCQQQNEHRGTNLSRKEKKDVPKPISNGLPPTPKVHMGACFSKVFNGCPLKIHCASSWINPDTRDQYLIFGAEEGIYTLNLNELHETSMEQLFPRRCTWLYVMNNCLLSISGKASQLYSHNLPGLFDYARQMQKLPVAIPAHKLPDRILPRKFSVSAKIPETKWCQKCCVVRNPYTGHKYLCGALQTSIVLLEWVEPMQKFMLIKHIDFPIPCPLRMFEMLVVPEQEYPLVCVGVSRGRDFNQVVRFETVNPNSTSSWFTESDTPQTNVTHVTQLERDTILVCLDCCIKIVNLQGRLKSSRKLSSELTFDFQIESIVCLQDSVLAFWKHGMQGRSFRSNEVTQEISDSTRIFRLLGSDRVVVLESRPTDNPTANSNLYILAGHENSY

Compound | IV Plasma Cl_obs [1] [mL/min/kg] | Maximum induction factor (Jurkat cells) | EC3x (Jurkat cells) [nM] | TGI ([3]; 75 mg/kg PO QD) [%] | Maximum induction factor [4] | EC3x [4] [nM] | IC50 (HPK1 [5]) [nM] | IC50 (HPK1 [6]) [nM] | IC50 (GLK) [nM] | further results
CN(C)Cc1nc(Nc2ccc(-c3cnc4cc(F)ccn34)c3c2C(=O)NC3)ccc1C1CCOCC1 [Compound D1, reference compound] | 17.6 | 8.1 | 544 | 38 | 4.6 | 528 |  |  |  | half-life [1, 7]: 4.01 h; AUC ([1]; plasma, PO 5 mg/kg): 1720 ng·h/mL; AUC ([2]; plasma, PO 10 mg/kg, saline): 396 ng·h/mL; half-life ([2]; plasma, PO 10 mg/kg, saline): 3.19 h; bioavailability ([2]; plasma, PO 10 mg/kg, saline, read-out: Bioavailability F %): 11.6%
CN(C)C1CC2(CCOCC2)c2ccc(Nc3ccc(-c4cnc5cc(F)ccn45)c4c3C(=O)NC4)nc21 (stereo not drawn) [Compound 2, 7-(7-(DIMETHYLAMINO)-2′,3′,5′,6,6′,7-HEXAHYDROSPIRO[CYCLOPENTYL]PYRIDINE-5,4′-PYRAN]-2-YL)AMINO)-4 (7-FLUOROIMIDAZOLE[1,2-A]PYRIDIN-3-YL)ISOINDOL-1-ONE] |  | 10 | 345 |  | 5.9 | 69 | 11.2 | 7.01 | 1170 | 
CN(C)[C@@H]1CC2(CCOCC2)c2ccc(Nc3ccc(-c4cnc5cc(F)ccn45)c4c3C(=O)NC4)nc21 [Compound 2B, (R)-7-((7-(DIMETHYLAMINO)-2′,3′,5′,6,6′,7-HEXAHYDROSPIRO[CYCLOPENTADIENYL[B]PYRIDINE-54′-PYRAN]-2-YL)AMINO)-4-(7-FLUOROIMIDAZO[1,2-A]PYRIDIN-3-YL)ISOINDOLIN-1-ONE] | 6.16 | 10.9 | 90.7 | 70 | 7.7 | 22 | 1.02 |  | 464 | Bioavailability F % ([1]; IV 1 mg/kg and PO 5 mg/kg): 50.2%; PO Plasma AUC ([1]; PO 5 mg/kg): 6302 ng·h/mL; T1/2 [1, 7]: 8.81 h; Bioavailability F % [2, 8]: 48.4%; PO Plasma AUC [2, 8]: 1082 ng·h/mL; T1/2 [2, 8]: 1.65 h; TGI ([3]; 25 mg/kg PO QD): 59%; TGI ([3]; 75 mg/kg PO BID): 90%
CN(C)C1CC2(CCOCC2)c2ccc(Nc3ccc(-c4cnc5cc(F)ccn45)c4c3C(=O)NC4)cc21 (stereo not drawn) [Compound 9] |  |  |  |  |  |  |  | 205 |  | 
Cc1cc(Nc2cnc(-c3ccnc4c3ccn4C)c3c2C(=O)NC3)cc2c1C1(CCOCC1)CN(C)C2 [Compound 14] |  |  |  |  |  |  |  | 54.8 |  | 
